Where two headings read alike, the source gives them in different places.

Type in all cases: cell-based
The test system of one assay is Alternaria radicina. The assay is described as follows: In vitro fungitoxic activity, 48-well PDA outgrowth, curative. Particulars: 168 h, read-out: EC50 fungicide. How it is done: (§1) All the experiments were done in the same way, with small differences between curative and preventive cases. In 48-well plates, each well was filled with a volume of 180 μL of the ITC, the fungicide or a combination of both at various concentrations and filled with 180 μL of Potato Dextrose Agar (PDA). Three wells were used per concentration for better accuracy. After solidification of the well, either a plug of 2×2 mm of grown fungi (curative case) or 20 μL of a spore solution (˜1E5 spores/mL, preventive case) was placed in each well, and the 48-well plate was sealed with parafilm. After 7 days of incubation at 20° C. in a controlled growth chamber, the fungal outgrowth was measured and the EC50 was calculated with a 4-parameter logistic regression in XLSTAT.
(§2) Afterward, a concentration of the fungicides at which the fungi is not growing (i.e. […] the EC50) was determined. Applicants repeated the 48-well experiment by filling the well with a mixture of the ITO and the fungicides; the fungicide concentration was kept constant at the determined concentration mentioned above and the ITO concentration was varied. As before, the fungal outgrowth was measured after 7 days of incubation. To calculate the synergistic properties of the combo ITO+fungicides, the Combination Index (CI) described by Chou (2006) was calculated using the CompuSyn software.

Assay [1] has as its system Geotrichum candidum. Described as above. Particulars: 168 h, read-out: EC50 fungicide. On the procedure: as §1, §2
For the next assay, the system named is Penicillium digitatum. The description is as above. Particulars: 168 h, read-out: EC50 fungicide. On the procedure:
as §1, §2

For assay [2], the system named is Rhizoctonia solani. The assay is described as above. Particulars: 168 h, fungicide alone, 7 days at 20° C. On the procedure:
as §1, §2

Assay [3] deals with Geotrichum candidum. Kind of assay: In vitro fungitoxic activity, 48-well PDA outgrowth, preventive (spore solution). Particulars: 168 h, fungicide alone, 7 days at 20° C. How it is done:
as §1, §2

The subject of the next assay is Fusarium verticilloides. Kind of assay: In vitro fungitoxic activity, 48-well PDA outgrowth, curative (Example 2). Particulars: 168 h, fungicide alone, 7 days at room temperature. On the procedure:
as §1, with “way.” for “way, with small differences between curative and preventive cases.”, “Two or three” for “Three”, “well” for “well, either”, “fungi” for “fungi (curative case) or 20 μL of a spore solution (˜1E5 spores/mL, preventive case)”, “room temperature,” for “20° C. in a controlled growth chamber,”
(§3) Afterward, a concentration of the fungicides at which the fungi is not growing (i.e. […] the EC50) was determined. Applicants repeated the 48-well experiment by filling the well with a mixture of the ITC and the fungicides; the fungicide concentration was kept constant at the determined concentration mentioned above and the ITC concentration was varied. As before, the fungal outgrowth was measured after 7 days of incubation. To calculate the synergistic properties of the combo ITC+fungicides, the Combination Index (CI) described by Chou (2006) was calculated using the CompuSyn software.

Assay [4] relates to Lasiodiplodia pseudotheobromae. Described as above. Particulars: 168 h, read-out: EC50 fungicide. On the procedure:
as §1, with “way.” for “way, with small differences between curative and preventive cases.”, “Two or three” for “Three”, “well” for “well, either”, “fungi” for “fungi (curative case) or 20 μL of a spore solution (˜1E5 spores/mL, preventive case)”, “room temperature,” for “20° C. in a controlled growth chamber,”
as §3

A further assay relates to Penicillium commune. The assay is described as above. Particulars: 168 h, fungicide alone, 7 days at room temperature. How it is done:
as §1, with “way.” for “way, with small differences between curative and preventive cases.”, “Two or three” for “Three”, “well” for “well, either”, “fungi” for “fungi (curative case) or 20 μL of a spore solution (˜1E5 spores/mL, preventive case)”, “room temperature,” for “20° C. in a controlled growth chamber,”
as §3

A further assay has as its system Botrytis cinerea. Kind of assay: In vitro fungitoxic activity, 48-well PDA outgrowth, curative. Particulars: 168 h, read-out: EC50 fungicide. How it is done:
as §1, §2

Assay [5] has as its system Plectosphaerella cucumerina. The assay is described as follows: In vitro fungitoxic activity, 48-well PDA outgrowth, curative (Example 2). Particulars: 168 h, read-out: EC50 fungicide. On the procedure:
as §1, with “way.” for “way, with small differences between curative and preventive cases.”, “Two or three” for “Three”, “well” for “well, either”, “fungi” for “fungi (curative case) or 20 μL of a spore solution (˜1E5 spores/mL, preventive case)”, “room temperature,” for “20° C. in a controlled growth chamber,”
as §3

Assay [6] has as its system Rhizoctonia solani. Kind of assay: In vitro fungitoxic activity, 48-well PDA outgrowth, preventive (spore solution). Particulars: 168 h, fungicide alone, 7 days at 20° C. How it is done: as §1, §2
A further assay relates to Colletotrichum acutatum. The assay is described as follows: In vitro fungitoxic activity, 48-well PDA outgrowth, curative (Example 2). Particulars: 168 h, fungicide alone, 7 days at room temperature. How it is done:
as §1, with “way.” for “way, with small differences between curative and preventive cases.”, “Two or three” for “Three”, “well” for “well, either”, “fungi” for “fungi (curative case) or 20 μL of a spore solution (˜1E5 spores/mL, preventive case)”, “room temperature,” for “20° C. in a controlled growth chamber,”
as §3

The mark [7] stands for this setting: fungicide alone, curative, 7 days at 20° C.
[8] abbreviates: fungicide alone, curative, 7 days at room temperature.

Take `CC(C)(C)C(O)(CCc1ccc(Cl)cc1)Cn1cncn1` (stereo not shown) [Tebuconazole]: the half-maximal effective concentration (EC50) with Alternaria radicina (setting [7]) was found to be 30 µM; in the assay on Geotrichum candidum [1] (setting [7]) it was 27 µM; in the assay on Penicillium digitatum (setting [7]), 1 µM; in the assay with Rhizoctonia solani [2], 18 µM; with Geotrichum candidum [3], 25 µM; in the assay with Fusarium verticilloides, 6 µM. In addition, the half-maximal effective concentration (EC50) amounted to 300 µM in [4] (setting [8]) and 179 µM in the assay with Penicillium commune.

On to `O=C1C2CC=CCC2C(=O)N1SC(Cl)(Cl)Cl` (stereo not shown) [Captan], for which the EC50 with Fusarium verticilloides worked out at 424 µM.

In the case of `N#Cc1c[nH]cc1-c1cccc2c1OC(F)(F)O2` [Fludioxonil], in assay [4], the EC50 was determined as 1 µM.

For `CCCCCCCCCCCCNC(=N)N` [Dodine], the EC50 came to 110 µM in the assay on Alternaria radicina; 189 µM with Botrytis cinerea; 156 µM in the assay with Geotrichum candidum [1]; 92 µM in the assay on Penicillium digitatum; 476 µM in assay [4]; 93 µM in assay [5].

In the case of `N#Cc1c(Cl)c(Cl)c(Cl)c(C#N)c1Cl` [Chlorothalonil], the values for the EC50 in the assay on Rhizoctonia solani [2], with Rhizoctonia solani [6] and in the assay with Colletotrichum acutatum were 29 µM, 2 µM and 52 µM, respectively.

Consider `Cc1cc(C)nc(Nc2ccccc2)n1` [Pyrimethanil], for which the EC50 with Alternaria radicina (setting [7]) was found to be 3 µM; with Rhizoctonia solani [2], 28 µM.

As to `Cc1cc(C2CC2)nc(Nc2ccccc2)n1` [Cyprodinil], in assay [4] (setting [8]), the EC50 was 9 µM.

The term EC50 denotes the concentration giving half of the maximal effect.

These data come from patent publication US20240349727A1, “SYNERGY BETWEEN MIXTURES OF ISOTHIOCYANATES AND COMMERCIAL FUNGICIDES” (priority 2021, published 2024).
